Where two headings read alike, the source gives them in different places.
Assays:
[1] = tested on: phosphorylation of CDK1 at Thr14 in HCC1806 cells; assay: Cell lysate AlphaLISA assay measuring inhibition of phosphorylation of CDK1 Thr14; type: cell-based; conditions: compounds incubated 4 hours, AlphaLISA SureFire Ultra CDK1 Thr14, read-out: Cellular IC50
Protocol: (§1) Biochemical IC50 values were determined via ADP-Glo™ assay. Cellular IC50 values were determined via AlphaLISA assay.
Cell lysate AlphaLISA® assay measuring inhibition of phosphorvlation of CDK1 Thr14. Inhibition of phosphorylation of CDK1 at Thr14 was determined using AlphaLISAn SureFire® Ultra™ Kit from Perkin Elmer (ALSU-PCDK1-A10K). HCC1806 cells were seeded at 2K cells per well (50 μl/well) in 384-well plates (Corning 3570) and stored overnight at 37° C. and 5% CO2. The following day, the compounds dissolved in DMSO were introduced to the cells and incubated for 4 hours at 37° C. and 5% CO2. The cells were then washed with PBS using Blue® Washer and 10 μl of lysis buffer containing protease inhibitor was added. The plate was placed on an orbital shaker (at 4° C.) for 30 minutes and stored overnight at −80° C. for complete lysing. The next day, the plates were thawed at room temperature for at least 30 min. Reagents were prepared in a dimmed light setting (<100 lumens). The assay was run by first adding 5 μl of the acceptor mix (reaction buffer 1: reaction buffer 2:activation buffer:acceptor beads 47:47:4:2), covering the plate with foil, shaking for 2 minutes, and incubating at RT for 60 minutes. The donor mix (dilution buffer:donor beads 47:3) was then added at 5 μl per well, placed on the shaker for 2 minutes and incubated at RT for 60 minutes before reading the plates on a PHERAstar® plate reader. The results were normalized to DMSO (0% Inhibition) and 3 μM of reference compound.

PKMYT1 = molecular target: T1, PKMYT1 (Homo sapiens, UniProt Q99640); assay: ADP-Glo PKMYT1 ATP-depletion assay; conditions: 50 nM PKMYT1, 13.3 nM CDK1, 88 μM ATP, 120 minutes at RT, read-out: Biochemical IC50
T1 construct: PKMYT1 (93 kD, full length, N-terminal GST tag from Signal Chem); GST (N); purchased Signal Chem
T1 sequence (Q99640 1-499): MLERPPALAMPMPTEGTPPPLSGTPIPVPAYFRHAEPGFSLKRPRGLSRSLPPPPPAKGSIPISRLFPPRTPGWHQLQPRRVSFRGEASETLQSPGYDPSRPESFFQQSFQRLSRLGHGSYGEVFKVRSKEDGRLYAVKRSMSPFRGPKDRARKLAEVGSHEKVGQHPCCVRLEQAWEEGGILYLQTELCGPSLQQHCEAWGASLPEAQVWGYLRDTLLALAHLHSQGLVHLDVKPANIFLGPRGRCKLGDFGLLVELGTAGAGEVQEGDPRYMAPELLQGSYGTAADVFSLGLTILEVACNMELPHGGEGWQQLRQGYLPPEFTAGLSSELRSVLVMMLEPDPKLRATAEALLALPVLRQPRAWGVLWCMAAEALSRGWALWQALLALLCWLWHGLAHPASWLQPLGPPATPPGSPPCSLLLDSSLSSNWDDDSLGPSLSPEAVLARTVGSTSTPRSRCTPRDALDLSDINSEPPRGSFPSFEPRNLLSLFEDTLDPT
Protocol: as §1
ADP-Glo™ PKMYT1 ATP-depletion assay. The activity of PKMYT1 is measured using a luciferase-luciferin based ATP detection reaction to quantify ATP depletion resulting from kinase-catalyzed phosphoryl transfer to CDK1 or autophosphorylation of PKMYT1. The ADP generated as a byproduct of the reaction is converted to ATP and used to drive a luciferase reaction. Test compounds were dissolved in DMSO and dispensed into Corning 3824 384-well plates prior to the experiment such that the final DMSO concentration was <10%. To the compounds was added 3 μL of PKMYT1 (93 kD, full length, N-terminal GST tag from Signal Chem). The reaction was started by the addition of 2 μL of CDK1 (58 kDa, full length, N-terminal GST tag from Signal Chem) and ATP in assay buffer (50 mM Hepes, 40 mM NaCl, 10 mM MgCl2, 1 mM DTT, 0.1 mg/mL BSA, 2.5 mM MnCl2). Final assay concentrations were 50 nM PKMYT1, 13.3 nM CDK1, and 88 μM ATP. Plates were centrifuged for 1 minute at 1000 RPM and incubated at RT for 120 minutes. After the incubation period, ADP-Glo™ reagent was added and the plates were incubated for another 40 minutes before finally adding the kinase detection reagent, 30 minutes after the addition, plates were placed on a PHERAstar® plate reader and read using the Luminescence Protocol, integration time at 0.5 seconds.

SMILES	IC50 ([1]; Homo sapiens, HCC1806, 4 h) [nM]	IC50 (PKMYT1) [nM]	IC50 [1] [nM]
[2H]c1cc(C)c(-c2cc(C(N)=O)nc3c2c(C#N)cn3CC)c(C)c1O (atropisomer, axis not shown; (P)) [Compound 89, (P)-3-cyano-1-ethyl-4-(3-hydroxy-2,6-dimethylphenyl-4-d)-1H-pyrrolo[2,3-b]pyridine-6-carboxamide]	< 50	< 50	–
Cc1ccc(O)c(C)c1-c1cc(C(N)=O)nc2c1c(C#N)cn2CC(F)F (atropisomer, axis not shown; (P)) [Compound 93, (P)-3-cyano-1-(2,2-difluoroethyl)-4-(3-hydroxy-2,6-dimethylphenyl)-1H-pyrrolo[2,3-b]pyridine-6-carboxamide]	< 50	< 50	–
Cc1ccc(O)c(C)c1-c1c(N)c(C(N)=O)cc2c1nc(C(F)F)n2C(F)F (atropisomer, axis not shown; (P)) [Compound 94, (P)-6-amino-2,3-bis(difluoromethyl)-7-(3-hydroxy-2,6-dimethyl-phenyl)benzimidazole-5-carboxamide]	< 50	< 50	–
Cc1ccc(O)c(C)c1-c1c(N)c(C(N)=O)cc2c1nc(C(F)F)n2-c1ncccc1F (atropisomer, axis not shown; (P)) [Compound 95, (P)-6-amino-2-(difluoromethyl)-3-(3-fluoro-2-pyridyl)-7-(3-hydroxy-2,6-dimethyl-phenyl)benzimidazole-5-carboxamide]	< 50	< 50	–
CCn1cc(-n2ccnc2)c2c(-c3c(C)ccc(O)c3C)cc(C(N)=O)nc21 (atropisomer, axis not shown; (P)) [Compound 97, (P)-1-ethyl-4-(3-hydroxy-2,6-dimethylphenyl)-3-(1H-imidazol-1-yl)-1H-pyrrolo[2,3-b]pyridine-6-carboxamide]	1000 to 5000	50 to 500	–
Cc1ccc(O)c(C)c1-c1c(N)c(C(N)=O)cc2c1nnn2C(F)F (atropisomer, axis not shown; (P)) [Compound 98, (P)-5-amino-1-(difluoromethyl)-4-(3-hydroxy-2,6-dimethylphenyl)-1H-benzo[d][1,2,3]triazole-6-carboxamide]	< 50	< 50	–
Cc1c(O)cccc1-c1c(N)c(C(N)=O)nc2c1c(C#N)cn2C (racemic) [Compound 4, 5-Amino-3-cyano-4-(3-hydroxy-2-methylphenyl)-1-methyl-1H-pyrrolo[2,3-b]pyridine-6-carboxamide]	< 50	< 50	–
Cc1ccc(O)c(C)c1-c1cc(C(N)=O)nc2c1c(C#N)cn2CC(F)(F)F (racemic) [Compound 23, 3-cyano-4-(3-hydroxy-2,6-dimethylphenyl)-1-(2,2,2-trifluoroethyl)pyrrolo[2,3-b]pyridine-6-carboxamide]	< 50	< 50	–
Cc1ccc(O)c(C)c1-c1cc(C(N)=O)nc2c1c(C#N)c(C)n2C (racemic) [Compound 26, 3-cyano-4-(3-hydroxy-2,6-dimethylphenyl)-1,2-dimethyl-pyrrolo[2,3-b]pyridine-6-carboxamide]	50 to 500	< 50	–
Cc1ccc(O)c(C)c1-c1cc(C(N)=O)nc2c1c(Cl)cn2C (racemic) [Compound 30, 3-chloro-4-(3-hydroxy-2,6-dimethylphenyl)-1-methyl-1H-pyrrolo[2,3-b]pyridine-6-carboxamide]	1000 to 5000	50 to 500	–
Cc1c(O)cccc1-c1c(N)c(C(N)=O)cn2c(C)nnc12 (racemic) [Compound 51, 7-Amino-8-(3-hydroxy-2-methylphenyl)-3-methyl-[1,2,4]triazolo[4,3-a]pyridine-6-carboxamide]	≥ 5000	500 to 1000	–
Cc1c(O)cccc1-c1c(N)c(C(N)=O)nc2c1c(C#N)nn2C (racemic) [Compound 54, 5-Amino-3-cyano-4-(3-hydroxy-2-methylphenyl)-1-methyl-1H-pyrazolo[3,4-b]pyridine-6-carboxamide]	50 to 500	< 50	–
Cc1ccc(O)c(C)c1-c1c(N)c(C(N)=O)nc2c1ncn2C (single isomer, unassigned) [Compound 2, (P)-6-Amino-7-(3-hydroxy-2,6-dimethylphenyl)-3-methyl-3H-imidazo[4,5-b]pyridine-5-carboxamide]	–	< 50	< 50
Cc1ccc(O)c(C)c1-c1c(N)c(C(N)=O)nc2c1ncn2C (single isomer, unassigned) [Compound 3, (M)-6-amino-7-(3-hydroxy-2,6-dimethylphenyl)-3-methyl-3H-imidazo[4,5-b]pyridine-5-carboxamide]	–	1000 to 5000	≥ 5000
Cc1c(O)cccc1-c1c(N)c(C(N)=O)nc2c1c(C#N)cn2C (single isomer, unassigned) [Compound 5, (M)-5-Amino-3-cyano-4-(3-hydroxy-2-methylphenyl)-1-methyl-1H-pyrrolo[2,3-b]pyridine-6-carboxamide]	< 50	< 50	–
Cc1c(O)cccc1-c1c(N)c(C(N)=O)nc2c1c(C#N)cn2C (single isomer, unassigned) [Compound 6, (P)-5-amino-3-cyano-4-(3-hydroxy-2-methylphenyl)-1-methyl-1H-pyrrolo[2,3-b]pyridine-6-carboxamide]	–	500 to 1000	50 to 500
Cc1ccc(O)c(C)c1-c1cc(C(N)=O)nc2c1c(C#N)cn2CC(F)(F)F (single isomer, unassigned) [Compound 25]	≥ 5000	≥ 5000	–
Cc1c(O)cccc1-c1c(N)c(C(N)=O)cn2ccnc12 (single isomer, unassigned) [Compound 45]	≥ 5000	≥ 5000	–
Cc1c(O)cccc1-c1c(N)c(C(N)=O)cn2c(C)nnc12 (single isomer, unassigned) [Compound 52, (P)-7-Amino-8-(3-hydroxy-2-methylphenyl)-3-methyl-[1,2,4]triazolo[4,3-a]pyridine-6-carboxamide]	≥ 5000	50 to 500	–
Cc1c(O)cccc1-c1c(N)c(C(N)=O)cn2c(C)nnc12 (single isomer, unassigned) [Compound 53, (M)-7-amino-8-(3-hydroxy-2-methylphenyl)-3-methyl-[1,2,4]triazolo[4,3-a]pyridine-6-carboxamide]	–	≥ 5000	≥ 5000
Cc1c(O)cccc1-c1c(N)c(C(N)=O)nc2c1c(C#N)nn2C (single isomer, unassigned) [Compound 58, (M)-5-Amino-3-cyano-4-(3-hydroxy-2-methylphenyl)-1-methyl-1H-pyrazolo[3,4-b]pyridine-6-carboxamide]	–	< 50	50 to 500
Cc1c(O)cccc1-c1c(N)c(C(N)=O)nc2c1c(C#N)nn2C (single isomer, unassigned) [Compound 59, (P)-5-amino-3-cyano-4-(3-hydroxy-2-methylphenyl)-1-methyl-1H-pyrazolo[3,4-b]pyridine-6-carboxamide]	–	1000 to 5000	≥ 5000
